The source made the active and inactive calls.
What was measured:
[1] = fluconazole-exposed Candida albicans growth modulators – fluorescence, retest, confirmation (AID 2467); assay type: functional, cell-based
[2] = biological target: ATP-dependent molecular chaperone HSP82 (Candida albicans (strain WO-1) (Yeast), UniProt C4YTQ8); assay: steroid-induced GRE reporter decrease in yeast – S. cerevisiae, luminescence, Hsp90 inhibitor project, dose response (AID 2400); assay type: functional, cell-based;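 also: beta-galactosidase luminescence from glucocorticoid response element reporter as proxy for Hsp90 function; inhibitor potency where signal loss means Hsp90 inhibition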
Sequence of ATP-dependent molecular chaperone HSP82 (C4YTQ8 whole entry): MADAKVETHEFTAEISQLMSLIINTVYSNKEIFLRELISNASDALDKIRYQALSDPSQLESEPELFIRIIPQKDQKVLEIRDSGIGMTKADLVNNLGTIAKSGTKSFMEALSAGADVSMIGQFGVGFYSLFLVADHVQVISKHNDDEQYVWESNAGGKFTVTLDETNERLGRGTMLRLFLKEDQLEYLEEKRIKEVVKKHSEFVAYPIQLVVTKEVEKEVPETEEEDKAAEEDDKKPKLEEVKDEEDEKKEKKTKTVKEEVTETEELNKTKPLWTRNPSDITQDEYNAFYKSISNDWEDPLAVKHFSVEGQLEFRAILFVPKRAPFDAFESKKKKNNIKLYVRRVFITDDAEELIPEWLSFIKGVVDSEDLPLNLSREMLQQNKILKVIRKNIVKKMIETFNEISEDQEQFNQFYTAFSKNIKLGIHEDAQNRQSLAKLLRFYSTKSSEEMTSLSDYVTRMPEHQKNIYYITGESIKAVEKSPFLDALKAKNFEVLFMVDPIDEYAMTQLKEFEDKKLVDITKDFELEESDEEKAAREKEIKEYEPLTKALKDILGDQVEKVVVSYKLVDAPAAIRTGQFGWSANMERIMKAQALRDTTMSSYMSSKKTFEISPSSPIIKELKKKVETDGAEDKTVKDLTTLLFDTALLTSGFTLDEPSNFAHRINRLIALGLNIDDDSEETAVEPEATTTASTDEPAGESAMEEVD

[3] = Luminescence Cell-Based Dose Retest to Confirm Inhibitors of Cancer Stem Cells. [Related pubchem assays (depositor defined):AID2717, AID2721]; assay type: functional; settings: Homo sapiens
[4] = NIH-3T3 fibroblast cytotoxicity, dose response, cytotoxicity control, cell-based, fluorescence, Alamar Blue, secondary assay (AID 2327); assay type: functional;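 also: NIH-3T3 mouse fibroblasts cultured with fluconazole at 8 µg/mL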
[5] = biological target: T1, High affinity choline transporter 1 (Homo sapiens, UniProt Q9GZV3); assay: human choline transporter blockers, potency – cell-based, 5-point CRC, membrane potential dye, dose response (AID 504840); assay type: functional
T1 sequence (Q9GZV3 whole entry): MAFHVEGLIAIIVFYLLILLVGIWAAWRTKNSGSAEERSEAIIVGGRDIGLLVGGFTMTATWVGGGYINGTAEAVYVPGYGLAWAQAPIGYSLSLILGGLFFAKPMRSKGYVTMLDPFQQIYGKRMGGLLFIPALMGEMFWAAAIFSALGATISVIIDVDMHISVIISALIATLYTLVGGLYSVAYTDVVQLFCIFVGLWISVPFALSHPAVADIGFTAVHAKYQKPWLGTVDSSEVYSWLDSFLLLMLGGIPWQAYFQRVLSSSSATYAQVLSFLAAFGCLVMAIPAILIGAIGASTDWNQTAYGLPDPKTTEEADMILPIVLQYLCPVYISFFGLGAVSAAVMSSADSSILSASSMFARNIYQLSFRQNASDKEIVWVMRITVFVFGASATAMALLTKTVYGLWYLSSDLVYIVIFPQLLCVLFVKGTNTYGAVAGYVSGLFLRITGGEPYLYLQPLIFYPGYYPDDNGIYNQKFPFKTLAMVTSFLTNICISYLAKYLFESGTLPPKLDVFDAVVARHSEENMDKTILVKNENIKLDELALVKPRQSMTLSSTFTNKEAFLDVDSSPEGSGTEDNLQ

[6] = tested on: Streptococcus sp. 'group A'; assay: Streptococcus pyogenes SK(-)GAS viability under kanamycin – luminescence, BacTiterGlo, confirmation, counter-screen for streptokinase expression inhibitor project, dose response (AID 1900); assay type: functional, organism-based
[7] = biological target: T2, Serine/threonine-protein phosphatase (Candida dubliniensis (strain CD36 / CBS 7987 / NCPF 3949 / NRRLY-17841) (Yeast), UniProt B9W6M3); assay: blockers of CaCl2-induced CDRE-lacZ signaling – S. cerevisiae, luminescence, secondary, dose response (AID 2388); assay type: functional, cell-based;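 also: yeast reporter cells carrying a calcineurin-responsive lacZ construct stimulated with calcium chloride; luminescent beta-galactosidase reporter signal in whole cells rather than isolated phosphatase activity; potency for inhibition where a drop in reporter signal means calcineurin blockade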
T2 sequence (B9W6M3 whole entry): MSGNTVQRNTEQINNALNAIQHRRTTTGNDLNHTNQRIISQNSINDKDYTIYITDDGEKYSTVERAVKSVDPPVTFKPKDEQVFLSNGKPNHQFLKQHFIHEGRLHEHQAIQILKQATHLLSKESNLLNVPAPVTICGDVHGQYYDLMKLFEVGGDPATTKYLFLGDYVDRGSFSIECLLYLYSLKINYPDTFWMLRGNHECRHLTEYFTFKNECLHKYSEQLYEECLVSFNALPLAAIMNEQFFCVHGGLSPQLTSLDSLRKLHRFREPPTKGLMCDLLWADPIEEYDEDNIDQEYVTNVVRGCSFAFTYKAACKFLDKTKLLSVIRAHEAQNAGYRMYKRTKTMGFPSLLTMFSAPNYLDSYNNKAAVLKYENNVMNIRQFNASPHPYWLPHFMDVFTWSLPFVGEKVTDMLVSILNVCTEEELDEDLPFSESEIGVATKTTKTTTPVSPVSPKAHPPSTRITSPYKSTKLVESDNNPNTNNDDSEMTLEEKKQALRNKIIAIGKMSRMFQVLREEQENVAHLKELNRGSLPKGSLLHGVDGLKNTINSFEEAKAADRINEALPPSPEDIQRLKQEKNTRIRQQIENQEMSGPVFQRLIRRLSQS

Streptococcus = assay: GAS UMAA2166 growth inhibition – luminescence, BacTiterGlo, counter-screen for streptokinase expression inhibitor project, dose response (AID 1915); assay type: functional, organism-based;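 also: potency for reduction of bacterial viability or growth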
Streptokinase A = biological target: T3, Streptokinase A (Streptococcus pyogenes serotype M1, UniProt P10520); assay: viability-normalized secreted streptokinase activity reduction – plasminogen activation absorbance, OD405, dose response (AID 1914); assay type: functional, Streptococcus pyogenes M1 GAS;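 also: secreted streptokinase activity via plasminogen activation per viability signal from cell pellet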
T3 sequence (P10520 whole entry): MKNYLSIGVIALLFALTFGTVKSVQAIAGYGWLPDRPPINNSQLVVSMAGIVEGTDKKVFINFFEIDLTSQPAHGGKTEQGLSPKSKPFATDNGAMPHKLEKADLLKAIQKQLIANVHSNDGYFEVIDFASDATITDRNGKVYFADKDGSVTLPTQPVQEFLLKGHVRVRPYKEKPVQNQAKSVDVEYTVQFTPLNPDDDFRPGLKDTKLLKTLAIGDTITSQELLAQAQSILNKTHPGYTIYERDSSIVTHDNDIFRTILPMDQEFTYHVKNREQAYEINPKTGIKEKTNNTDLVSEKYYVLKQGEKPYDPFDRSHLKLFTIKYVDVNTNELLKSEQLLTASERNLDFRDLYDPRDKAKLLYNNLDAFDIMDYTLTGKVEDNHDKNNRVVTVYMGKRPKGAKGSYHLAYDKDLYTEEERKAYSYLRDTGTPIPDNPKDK

[8] = biological target: T4, DNA repair protein RAD52 homolog (Homo sapiens, UniProt P43351); assay type: functional, biochemical
T4 sequence (P43351 whole entry): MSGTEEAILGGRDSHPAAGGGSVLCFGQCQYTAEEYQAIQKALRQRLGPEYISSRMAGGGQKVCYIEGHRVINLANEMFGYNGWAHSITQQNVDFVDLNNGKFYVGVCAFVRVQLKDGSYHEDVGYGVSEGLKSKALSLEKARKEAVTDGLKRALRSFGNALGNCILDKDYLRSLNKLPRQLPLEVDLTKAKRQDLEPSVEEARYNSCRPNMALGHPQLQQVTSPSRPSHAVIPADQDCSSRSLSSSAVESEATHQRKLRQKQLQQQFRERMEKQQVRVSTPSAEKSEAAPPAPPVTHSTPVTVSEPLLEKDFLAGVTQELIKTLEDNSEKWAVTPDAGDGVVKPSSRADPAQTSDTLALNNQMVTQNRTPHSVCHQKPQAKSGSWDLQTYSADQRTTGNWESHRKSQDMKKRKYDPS

[9] = biological target: Heat shock protein HSP 90-alpha (Homo sapiens, UniProt P07900); assay type: functional, organism-based
Vero = assay: viability of Vero cells under compound – cytotoxicity control for flavivirus capping enzyme inhibitors (AID 588742); assay type: functional; settings: Chlorocebus sabaeus
HEK293 = assay: cells; settings: Homo sapiens;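 also: cells exposed to compound for 14 hours overnight before viability readout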
Tumor necrosis factor = Tumor necrosis factor (Homo sapiens, UniProt P01375); assay: analog potency on TNFa NF-kB signaling – cell-based, revised, SAR follow-up (AID 2337); assay type: functional
Sequence of Tumor necrosis factor (P01375 whole entry, the tested form may be a part): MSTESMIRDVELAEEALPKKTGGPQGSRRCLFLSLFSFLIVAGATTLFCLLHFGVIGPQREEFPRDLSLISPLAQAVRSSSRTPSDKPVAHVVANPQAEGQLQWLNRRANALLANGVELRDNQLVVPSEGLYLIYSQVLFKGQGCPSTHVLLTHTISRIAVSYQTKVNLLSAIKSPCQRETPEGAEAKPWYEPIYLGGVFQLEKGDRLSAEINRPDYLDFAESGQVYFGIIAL

[10] = biological target: T5, Nucleotide-binding oligomerization domain-containing protein 1 (Homo sapiens, UniProt Q9Y239); assay: blockers of NOD1 pathway activity – revised, SAR follow-up (AID 2333); assay type: functional
T5 sequence (Q9Y239 whole entry): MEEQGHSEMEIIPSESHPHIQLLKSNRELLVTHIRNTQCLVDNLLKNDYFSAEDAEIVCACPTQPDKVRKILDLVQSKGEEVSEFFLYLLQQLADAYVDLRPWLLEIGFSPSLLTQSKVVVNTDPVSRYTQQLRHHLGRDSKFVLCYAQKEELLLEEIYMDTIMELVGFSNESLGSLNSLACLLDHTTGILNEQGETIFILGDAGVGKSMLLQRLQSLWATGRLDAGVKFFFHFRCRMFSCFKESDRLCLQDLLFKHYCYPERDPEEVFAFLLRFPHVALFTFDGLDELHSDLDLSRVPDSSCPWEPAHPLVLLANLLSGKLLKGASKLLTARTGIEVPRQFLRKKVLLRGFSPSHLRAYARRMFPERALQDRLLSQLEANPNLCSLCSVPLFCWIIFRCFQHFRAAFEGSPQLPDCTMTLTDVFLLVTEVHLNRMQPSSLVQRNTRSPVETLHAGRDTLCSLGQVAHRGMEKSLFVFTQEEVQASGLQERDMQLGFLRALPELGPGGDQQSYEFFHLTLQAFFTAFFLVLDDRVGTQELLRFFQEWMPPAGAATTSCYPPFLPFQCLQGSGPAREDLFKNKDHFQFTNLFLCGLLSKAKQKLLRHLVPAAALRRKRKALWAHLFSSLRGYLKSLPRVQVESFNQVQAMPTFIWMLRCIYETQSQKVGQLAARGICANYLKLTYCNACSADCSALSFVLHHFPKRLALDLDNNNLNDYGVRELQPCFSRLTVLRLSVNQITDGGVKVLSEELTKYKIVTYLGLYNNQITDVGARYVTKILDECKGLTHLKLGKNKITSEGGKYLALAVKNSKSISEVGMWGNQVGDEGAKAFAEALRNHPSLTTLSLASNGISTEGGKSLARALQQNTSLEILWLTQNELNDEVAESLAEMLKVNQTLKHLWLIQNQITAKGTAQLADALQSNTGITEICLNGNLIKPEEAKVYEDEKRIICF

Row | Structure (SMILES) | EC50 [1] | EC50 [2] | AC50 [3] | EC50 [4] | IC50 [5] | EC50 [6] | EC50 [7] | EC50 (Streptococcus) | EC50 (Streptokinase A) | AC50 [8] | AC50 [9] | CC50 (Vero) | IC50 (HEK293) | IC50 (Tumor necrosis factor) | IC50 [10]
1 | O=C(NNC1=C(C(=O)C(F)(F)F)CCC1)c1cccc(Cl)c1 | 0.741 µM (active) | 24.6 µM (active) | 1.95 µM (active) | > 150 µM (inactive) | 11 µM (active) | 1.23 µM (active) | > 180 µM (inactive) | 2.77 µM (active) | > 150 µM (not active) |  |  |  |  |  | 
2 | CC(C)N1CCc2c(sc(NC(=O)c3nc4ccccc4s3)c2C(N)=O)C1 | 0.491 µM (active) | 51.8 µM (active) |  | > 150 µM (inactive) |  |  | > 180 µM (inactive) |  |  | 9.55 µM (active) |  |  |  |  | 
3 | [O-][n+]1cccc2c(Br)cc(Br)c(O)c21 | 0.651 µM (active) | > 160 µM (inactive) |  | > 150 µM (inconclusive) |  | 0.865 µM (active) | > 180 µM (inactive) | 18.7 µM (active) | > 150 µM (not active) |  | 3.15 µM (active) | > 40 µM (active) |  |  | 
4 | COc1ccc(NC(=O)c2ccc(CN3CCc4ccccc43)cc2)cc1 |  |  |  |  |  |  |  |  |  |  |  |  | > 20 µM (inactive) | > 20 µM (inactive) | > 20 µM (inactive)

From ChEMBL document CHEMBL1201862, “PubChem BioAssay data set” (2004)
